# Laboratory results from patent US20250090540A1, “PI3K-ALPHA INHIBITORS AND METHODS OF USE THEREOF” (Relay Therapeutics, Inc., priority 2021, published 2025).
# Molecular target: H1047R PIK3CA enzyme (Homo sapiens, UniProt P42336, H1047R)
# Test: ADP-Glo Biochemical PIK3CA Kinase Assay
# Conditions: not given
# H1047R PIK3CA enzyme, sequence (P42336 whole entry H1047R): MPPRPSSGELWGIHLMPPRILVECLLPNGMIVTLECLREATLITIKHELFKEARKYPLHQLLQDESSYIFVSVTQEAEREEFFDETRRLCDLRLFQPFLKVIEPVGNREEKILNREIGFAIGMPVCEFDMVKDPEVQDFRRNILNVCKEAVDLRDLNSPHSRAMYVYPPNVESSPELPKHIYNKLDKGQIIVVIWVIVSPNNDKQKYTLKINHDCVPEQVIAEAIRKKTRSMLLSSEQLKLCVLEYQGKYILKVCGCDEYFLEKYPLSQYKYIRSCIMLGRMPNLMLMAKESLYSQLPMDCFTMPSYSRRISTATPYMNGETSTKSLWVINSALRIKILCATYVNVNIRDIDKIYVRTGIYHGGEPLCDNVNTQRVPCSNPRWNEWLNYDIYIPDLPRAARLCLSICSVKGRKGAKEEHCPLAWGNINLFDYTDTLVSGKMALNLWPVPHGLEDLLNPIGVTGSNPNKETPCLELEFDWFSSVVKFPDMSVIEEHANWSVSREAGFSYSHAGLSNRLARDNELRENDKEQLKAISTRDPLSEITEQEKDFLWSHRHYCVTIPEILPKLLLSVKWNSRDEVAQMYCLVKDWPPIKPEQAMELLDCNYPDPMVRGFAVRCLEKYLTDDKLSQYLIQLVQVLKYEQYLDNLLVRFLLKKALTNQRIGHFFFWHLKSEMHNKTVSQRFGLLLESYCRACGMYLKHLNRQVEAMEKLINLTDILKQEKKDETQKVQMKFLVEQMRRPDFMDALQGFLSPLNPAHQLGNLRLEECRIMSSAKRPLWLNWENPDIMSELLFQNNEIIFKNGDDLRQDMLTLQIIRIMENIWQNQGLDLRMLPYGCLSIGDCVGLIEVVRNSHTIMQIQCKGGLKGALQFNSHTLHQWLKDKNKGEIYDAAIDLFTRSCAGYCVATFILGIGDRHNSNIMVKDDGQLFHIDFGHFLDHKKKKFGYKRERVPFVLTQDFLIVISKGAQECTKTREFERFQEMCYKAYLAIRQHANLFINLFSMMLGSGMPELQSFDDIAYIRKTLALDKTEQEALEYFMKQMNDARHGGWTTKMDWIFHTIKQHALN
# H1047R PIK3CA enzyme, sequence (P27986 whole entry partner): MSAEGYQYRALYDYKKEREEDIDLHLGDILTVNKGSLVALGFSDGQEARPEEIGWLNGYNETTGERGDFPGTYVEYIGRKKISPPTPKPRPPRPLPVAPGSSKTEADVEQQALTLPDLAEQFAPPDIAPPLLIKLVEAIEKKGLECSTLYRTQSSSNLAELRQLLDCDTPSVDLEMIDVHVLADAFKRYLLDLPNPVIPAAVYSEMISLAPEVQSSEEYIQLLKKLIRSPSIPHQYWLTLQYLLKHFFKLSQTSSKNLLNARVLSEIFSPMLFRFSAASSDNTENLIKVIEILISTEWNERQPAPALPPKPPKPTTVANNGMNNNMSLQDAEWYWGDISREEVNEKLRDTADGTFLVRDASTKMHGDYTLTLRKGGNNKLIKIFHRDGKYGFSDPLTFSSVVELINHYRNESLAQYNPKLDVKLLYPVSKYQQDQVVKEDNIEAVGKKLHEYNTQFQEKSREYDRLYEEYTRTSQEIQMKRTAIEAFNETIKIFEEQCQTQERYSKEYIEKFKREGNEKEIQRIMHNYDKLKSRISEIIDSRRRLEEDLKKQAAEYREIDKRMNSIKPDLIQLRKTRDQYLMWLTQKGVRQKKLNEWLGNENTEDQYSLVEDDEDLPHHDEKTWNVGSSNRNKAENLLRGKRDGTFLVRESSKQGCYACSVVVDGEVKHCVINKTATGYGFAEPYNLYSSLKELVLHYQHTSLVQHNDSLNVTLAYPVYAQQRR
row,IC50,Compound
1,10 to 100 µM,CNC(=O)c1cnc(Nc2ccccc2C)c(NC(=O)c2cccc3ccncc23)c1 [I-238]
2,10 to 100 µM,CNC(=O)c1cnc(Nc2ccccc2C)c(NC(=O)c2cnc3ccccc3c2)c1 [I-176]

# The remaining lines, values behind:
row,Compound,IC50
1,CNC(=O)c1cnc(Nc2cc(F)ccc2Cl)c(NC(=O)NC23C[C@H]4C[C@@H](C2)C[C@@H](C3)C4)c1 [I-799],10 to 100 µM
2,CNC(=O)c1cnc(Nc2ccccc2C)c(NC(=O)[C@H](N)C2CCCCC2)c1 (stereo in doubt) [I-142],10 to 100 µM
3,O=C(NC1CS(=O)(=O)C1)c1cnc(N2C[C@H]3C[C@H]3c3ccccc32)c(NC(=O)c2csc3ccccc23)c1 (racemic) [I-255],0.5 to 1 µM
4,Cc1ccccc1Nc1ncc(N2CC(N)C2)cc1NC(=O)c1cc(F)cc(C(F)(F)F)c1 [I-73],1 to 10 µM
5,CNC(=O)c1cnc(Nc2ccccc2C)c(NC(=O)c2cn3c(C(F)(F)F)cccc3n2)c1 [I-380],10 to 100 µM
6,CNC(=O)c1cnc(Nc2cccc(F)c2)c(N)c1 [I-32],10 to 100 µM
7,CNC(=O)c1cnc(Nc2ccccc2C)c(NC(=O)Cc2ccc(OCc3ccccc3)c(OCc3ccccc3)c2)c1 [I-14],10 to 100 µM
8,Cc1ccccc1Nc1ncc(-c2cnn(C)c2)cc1NC(=O)c1cccc2cccnc12 [I-125],10 to 100 µM
9,Cc1ccccc1Nc1ncc(C(=O)Nc2ccn(C)n2)cc1NC(=O)c1cc(F)cc(C(F)(F)F)c1 [I-235],0.5 to 1 µM
10,Cc1ccccc1N[C@H]1CCN(C(=O)C2(O)CC2)C[C@@H]1C(=O)Nc1cc(F)cc(C(F)(F)F)c1 (racemic) [I-228],10 to 100 µM
11,CNC(=O)c1cnc(Nc2ccccc2C)c(NC(=O)C2(c3ccccc3)CC2(F)F)c1 (stereo not drawn) [I-342],10 to 100 µM

# Same assay, conditions: ADP-Glo biochemical PIK3CA kinase assay
row,IC50,Compound
1,1 to 10 µM,CNC(=O)c1cnc(Nc2cncc3ccccc23)c(NC(=O)c2csc3ccccc23)c1 [I-741]
2,1 to 10 µM,"Cc1ccccc1Nc1ncc(C(=O)N[C@@H]2CC[C@@H](C(=O)O)C2)cc1NC(=O)c1csc2ccccc12 (single isomer, unassigned) [I-661]"
3,1 to 10 µM,CNC(=O)c1cnc(Nc2c3c(nn2C)CCCC3)c(NC(=O)c2csc3ccccc23)c1 [I-732]
4,10 to 100 µM,CNC(=O)c1cnc(Nc2ccccc2C)c(NC(=O)c2cccc3ccoc23)c1 [I-494]
5,1 to 10 µM,CNC(=O)c1cnc(Nc2ccccc2C)c(NC(=O)c2onc3ccccc23)c1 [I-644]
6,1 to 10 µM,Cc1ccccc1Nc1ncc(C(=O)N2CC(C)(O)C2)cc1NC(=O)c1csc2ccccc12 [I-620]
7,0.5 to 1 µM,Cc1ccccc1Nc1ncc(C(=O)NCc2ncccn2)cc1NC(=O)c1csc2ccccc12 [I-586]
8,10 to 100 µM,CNC(=O)c1cnc(Nc2ccccc2C)c(NC(=O)c2coc3cccc(Br)c23)c1 [I-483]

# Continued, compound first:
row,Compound,IC50
1,CCc1c(Cl)c(C(=O)Nc2cc(C(=O)NC)cnc2Nc2ccccc2C)nn1C [I-465],10 to 100 µM
2,O=C(N[C@H]1CCC[C@H]1N1CCOc2ccccc21)c1cc(F)cc(C(F)(F)F)c1 (racemic) [I-796],0.5 to 1 µM
3,CNC(=O)c1cnc(Nc2ccccc2C)c(NC(=O)c2ccc3c(c2)CCN3C)c1 [I-504],10 to 100 µM
4,CNC(=O)c1cnc(Nc2ccccc2C)c(NC(=O)c2n[nH]c3cccc(F)c23)c1 [I-426],1 to 10 µM
5,CNC(=O)c1cnc(Nc2ccccc2C)c(NC(=O)c2cccc(C#N)c2Cl)c1 [I-466],10 to 100 µM
6,CNC(=O)c1cnc(Nc2ccccc2C)c(NC(=O)c2cc(F)ccc2OC(F)(F)F)c1 [I-495],10 to 100 µM
7,CNC(=O)c1cnc(Nc2ccccc2C)c(NC(=O)Cc2cc(Br)ccc2Cl)c1 [I-595],1 to 10 µM
8,CNC(=O)c1cnc(Nc2ccccc2C)c(NC(=O)c2cc(C)cc(OC)c2)c1 [I-478],10 to 100 µM
9,CNC(=O)c1cnc(Nc2ccccc2C)c(NC(=O)c2coc3c(F)cc(Cl)cc23)c1 [I-766],0.5 to 1 µM
10,CNC(=O)c1cnc(Nc2ccccc2C)c(NC(=O)c2cnc3ccc(F)cn23)c1 [I-469],10 to 100 µM
11,CNC(=O)c1cnc(Nc2ccccc2C)c(NC(=O)CCc2c[nH]c3ccc(F)cc23)c1 [I-459],10 to 100 µM
12,CNC(=O)c1cnc(Nc2ccccc2C)c(NC(=O)c2ccc(F)c(F)c2)c1 [I-722],1 to 10 µM
